From patent US12422427B2, “Compounds for treatment of diseases and methods of screening therefor” (Max-Planck-Gesellschaft zur Förderung der Wissenschaften …, priority 2018, dated 2025) come the findings set out here.

For assay [1], the system named is HeLa cells expressing FUS GFP. The experiment in a line: HeLa FUS GFP live imaging: pre-stress then treatment, and pre-treatment with wash-out. Format: cell-based. How it is done:
To determine if lipoic acid can lead to dissolution of existing stress granules the inventors pre-stressed HeLa cells expressing FUS-GFP cells then treated them with lipoamide. […] This response is likely too rapid to represent a transcription/translation response.
To test if treatment of cells with lipoamide can give a persistent resistance to stress granule formation in the absence of continued lipoamide treatment 1 h pre-treatment of HeLa cells with 10 μM lipoamide followed by 1 h arsenate stress without lipoamide was tested.
Compound effects were assessed under a variety of conditions in HeLa or iPS cells expressing wild-type or P525L FUS GFP by live cell imaging. Different combinations of 1 h pre-treatment compound or pre-stress with arsenate followed by 1 h treatment with compound and/or stress with arsenate. […] GFP fluorescence was imaged by widefield epifluorescence using an inverted Olympus IX71 microscope with an Olympus 100× NA 1.4 Plan Apo oil immersion objective and a CoolSNAP HQ CCD camera (Photometrics), using a DeltaVision climate control unit (37° C., 5% CO2) (Applied Precision). The kinetics of pre-stress followed by treatment was analysed from images captured at 2 min intervals for 100 min, for single time points images were captured after 1 h unless otherwise indicated.

Assay [2] relates to wild-type or P525L FUS GFP. Kind of assay: Filter retardation assay and Western blot for intracellular FUS aggregates in iPS cells. Format: cell-based, human. The following applies: 100 μM lipoamide 1 h pre-treatment. As to the method: FIG. 11A) FUS GFP localisation in isogenic iPS cells expressing either wild-type or P525L FUS GFP under combinations of 1 h arsenate stress followed by 1 h stress with 30 μM lipoamide or DMSO negative control treatment. […] FIG. 11B) Relative optical densities of aggregated FUS assessed by filter retardation from the iPS cells in FIG. 11A) following 1 h pre-treatment with 100 μM lipoamide or DMSO solvent control followed by 1 h arsenate stress or no stress. Significant changes (Student's t-test) are indicated, n=5. FIG. 11C) Anti-FUS and anti-GAPDH Western blots following the cell treatments in FIG. 11B).
Both cell lines had evidence for some FUS aggregation, which was reduced following treatment with lipoamide (FIG. 11B).
For Western blots and analysis of intracellular FUS aggregates iPS cells were lysed with RIPA buffer. Western blots were performed using standard methods and the following antibodies: Mouse anti-FUS (AMAB90549 Sigma Aldrich, 1:500 dilution), rabbit anti-GFP (sc-8334 Santa Cruz, 1:400) or rabbit anti-GAPDH (2118S NEB, 1:5000) primary antibody with horseradish peroxidase-conjugated anti-mouse or anti-rabbit (Dianova 1:10,000) secondary antibodies. The filter retardation assay for intracellular FUS aggregates was performed as previously described^56. […] Aggregated FUS was detected as above.

The subject of another assay is KIN-19. In kind it is in vivo, Caenorhabditis elegans. The following applies: 1.5 mM. How it is done:
The effect of lipoic acid on stress granule protein aggregation in vivo was analysed using a C. elegans model for stress granule formation and aggregation. As previously described, fluorescent-tagged PAB-1 forms abundant stress granules and large solid aggregates during aging or upon chronic stress. RHO-1 and KIN-19 also aggregate during aging, but are not RNA binding or stress granule proteins. Three lines were used: Fluorescently tagged PAB-1 (DCD214: N2; uqIs24[pmyo-2::tagrfp::pab 1gene]), KIN-19 (CF3649: N2; muIs 209[pmyo-3::kin-19::tagrfp+ptph-1::GFP] and RHO-1 (DCD13: N2; uqIs9 [pmyo-2::rho-1::tagr fp+ptph-1::gfp]). Each were analysed as below, except DCD13 were maintained at 20° C.
The animals were exposed to lipoic acid in liquid culture in a 96 well plate starting from larval stage L4 in a total volume of 50 μl S-Complete per well (100 mM NaCl, 50 mM Potassium phosphate pH 6, 10 mM potassium citrate, 3 mM MgSO4, 3 mM CaCl2), 5 μg/mL cholesterol, 50 μM ethylenediaminetetraacetic acid (EDTA), 25 μM FeSO4, 10 μM MnCl2, 10 μM ZnSO4, 1 μM CuSO4) supplemented with heat-killed OP50 and 50 μg/ml carbenicillin. […] Toxicity was evaluated from the number of dead or aberrantly small-sized animals.
48 h after switching the L4s from 20° C. to 25° C. […] After immobilization with 2 mM levamisole aggregation was scored using a fluorescent stereo microscope (Leica M165 FC, Plan Apo 2.0× objective). […]

As to `NC(=O)CCCCC1CCSS1` (racemic) [lipoamide, 5-(1,2-dithiolan-3-yl)pentanamide], in assay [1] (1 h arsenate pre-stress, then 10 μM lipoamide with 1 mM arsenate, within 20 minutes), the “cytoplasmic FUS droplets dissolved” value is on record as 80-90%. The “stress granule formation after compound wash-out” value in assay [1] (1 h pre-treatment 10 μM, then 1 h arsenate stress without compound) is listed as “did not prevent stress granule formation”. In assay [2], the “FUS expression level relative to GAPDH (Western blot)” value is listed as “No significant change”. For the same molecule, the “quantity of insoluble FUS (filter binding)” value in assay [2] (wild-type or P525L FUS, arsenate-stressed iPSCs) is “reduced the quantity of insoluble FUS”.

With `O=C(O)CCCCC1CCSS1` (racemic) [lipoic acid, 5-(1,2-dithiolan-3-yl)pentanoic acid], the KIN-19 aggregation entry in the assay with KIN-19 is on record as “mild decrease”.
